According to patent publication US20260250290A1 (BRISTOL-MYERS SQUIBB COMPANY, priority 2023, published 2026):
pIC50: −log10 of the molar value. Counter-ions that a name gives are not always drawn.

Target: T1, full length SGK1 (Homo sapiens, UniProt O00141)
T1 construct: 125 μM full length SGK1 (Life Technologies Part #PR7358A); purchased Life Technologies PR7358A
T1 sequence (O00141 1-431): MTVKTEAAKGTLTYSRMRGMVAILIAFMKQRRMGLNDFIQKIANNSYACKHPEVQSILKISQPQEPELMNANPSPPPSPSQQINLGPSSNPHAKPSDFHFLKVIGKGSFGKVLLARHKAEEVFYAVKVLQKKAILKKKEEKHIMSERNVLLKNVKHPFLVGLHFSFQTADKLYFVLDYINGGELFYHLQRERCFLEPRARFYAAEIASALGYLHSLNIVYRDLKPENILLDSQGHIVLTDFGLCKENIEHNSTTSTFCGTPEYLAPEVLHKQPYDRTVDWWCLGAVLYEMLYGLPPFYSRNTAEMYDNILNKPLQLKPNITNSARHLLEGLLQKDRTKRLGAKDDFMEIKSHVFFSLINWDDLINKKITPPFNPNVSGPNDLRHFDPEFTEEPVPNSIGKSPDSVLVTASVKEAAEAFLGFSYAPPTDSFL
Assay: SGK1 inhibition Assay A (Caliper LabChip electrophoretic separation of fluorescent peptide substrate and phosphorylated product)
Format: biochemical
Details: Assay A; 20 μM ATP, 40 min incubation; read-out: SGK1 IC50

SMILES	pIC50
Cc1cc(-c2cc(N3CCC[C@@H](NC(=O)c4ccc(C)s4)C3)c3c(N)ncnn23)ccn1 [Example 133, N-[(3R)-1-[4-amino-7-(2-methylpyridin-4-yl)pyrrolo[2,1-f][1,2,4]triazin-5-yl]piperidin-3-yl]-5-methylthiophene-2-carboxamide]	8.40
CS(=O)(=O)N1CC=C(c2cc(N3CCC[C@@H](NC(=O)c4ccc(Cl)s4)C3)c3c(N)ncnn23)C1 [Example 134, (R)—N-(1-(4-amino-7-(1-(methylsulfonyl)-2,5-dihydro-1H-pyrrol-3-yl)pyrrolo[2,1-f][1,2,4]triazin-5-yl)piperidin-3-yl)-5-chlorothiophene-2-carboxamide]	8.70
CS(=O)(=O)N1CC=C(c2cc(N3CCC[C@@H](NC(=O)c4cccs4)C3)c3c(N)ncnn23)C1 [Example 135, (R)—N-(1-(4-amino-7-(1-(methylsulfonyl)-2,5-dihydro-1H-pyrrol-3-yl)pyrrolo[2,1-f][1,2,4]triazin-5-yl)piperidin-3-yl)thiophene-2-carboxamide, TFA]	8.52
Cc1ccc(C(=O)N[C@@H]2CCN(c3cc(-c4ccc(S(C)(=O)=O)cc4)n4ncnc(N)c34)C2)s1 [Example 136, (R)—N-(1-(4-amino-7-(4-(methylsulfonyl)phenyl)pyrrolo[2,1-f][1,2,4]triazin-5-yl)pyrrolidin-3-yl)-5-methylthiophene-2-carboxamide, TFA]	6.64
CS(=O)(=O)c1ccc(-c2cc(N3CC[C@@H](NC(=O)c4ccc(Cl)s4)C3)c3c(N)ncnn23)cc1 [Example 137, (R)—N-(1-(4-amino-7-(4-(methylsulfonyl)phenyl)pyrrolo[2,1-f][1,2,4]triazin-5-yl)pyrrolidin-3-yl)-5-chlorothiophene-2-carboxamide, TFA]	6.84
COC(=O)N1CC=C(c2cc(N3CCC[C@@H](NC(=O)c4ccc(Cl)s4)C3)c3c(N)ncnn23)C1 [Example 138, methyl (R)-3-(4-amino-5-(3-(5-chlorothiophene-2-carboxamido)piperidin-1-yl)pyrrolo[2,1-f][1,2,4]triazin-7-yl)-2,5-dihydro-1H-pyrrole-1-carboxylate, TFA]	8.15
NC(=O)c1ccc(-c2cc(N3CCC[C@@H](NC(=O)c4ccc(Cl)s4)C3)c3c(N)ncnn23)cc1F [Example 139, (R)—N-(1-(4-amino-7-(4-carbamoyl-3-fluorophenyl)pyrrolo[2,1-f][1,2,4]triazin-5-yl)piperidin-3-yl)-5-chlorothiophene-2-carboxamide, TFA]	8.52
COCCOc1cc(Cl)sc1C(=O)N[C@@H]1CCCN(c2cc(C3=CCN(S(C)(=O)=O)C3)n3ncnc(N)c23)C1 [Example 140, (R)—N-(1-(4-amino-7-(1-(methylsulfonyl)-2,5-dihydro-1H-pyrrol-3-yl)pyrrolo[2,1-f][1,2,4]triazin-5-yl)piperidin-3-yl)-5-chloro-3-(2-methoxyethoxy)thiophene-2-carboxamide]	8.22
CN(C)CCOc1cc(Cl)sc1C(=O)N[C@@H]1CCCN(c2cc(C3=CCN(S(C)(=O)=O)C3)n3ncnc(N)c23)C1 [Example 141, (R)—N-(1-(4-amino-7-(1-(methylsulfonyl)-2,5-dihydro-1H-pyrrol-3-yl)pyrrolo[2,1-f][1,2,4]triazin-5-yl)piperidin-3-yl)-5-chloro-3-(2-(dimethylamino)ethoxy)thiophene-2-carboxamide, TFA]	8.52
CS(=O)(=O)N1CC=C(c2cc(N3CCC[C@@H](NC(=O)c4sc(Cl)cc4OCCN4CCOCC4)C3)c3c(N)ncnn23)C1 [Example 142, (R)—N-(1-(4-amino-7-(1-(methylsulfonyl)-2,5-dihydro-1H-pyrrol-3-yl)pyrrolo[2,1-f][1,2,4]triazin-5-yl)piperidin-3-yl)-5-chloro-3-(2-morpholinoethoxy)thiophene-2-carboxamide, TFA]	8.05
CC1(NC(=O)c2ccc(Cl)s2)CCCN(c2cc(-c3ccc(S(C)(=O)=O)cc3)n3ncnc(N)c23)C1 (centres unmarked) [Example 145, N-(1-(4-amino-7-(4-(methylsulfonyl)phenyl)pyrrolo[2,1-f][1,2,4]triazin-5-yl)-3-methylpiperidin-3-yl)-5-chlorothiophene-2-carboxamide, TFA]	6.12
C[C@@]1(NC(=O)c2ccc(Cl)s2)CCCN(c2cc(-c3ccc(S(C)(=O)=O)cc3)n3ncnc(N)c23)C1 [Example 146, (R)—N-(1-(4-amino-7-(4-(methylsulfonyl)phenyl)pyrrolo[2,1-f][1,2,4]triazin-5-yl)-3-methylpiperidin-3-yl)-5-chlorothiophene-2-carboxamide, TFA]	6.08
COCCOc1cc(Cl)sc1C(=O)N[C@@H]1CCCN(c2cc(-c3ccnc(F)c3)n3ncnc(N)c23)C1 [Example 147, (R)-N-(1-(4-amino-7-(2-fluoropyridin-4-yl)pyrrolo[2,1-f][1,2,4]triazin-5-yl)piperidin-3-yl)-5-chloro-3-(2-methoxyethoxy)thiophene-2-carboxamide]	8.40
Nc1ncnn2c(-c3ccnc(F)c3)cc(N3CCC[C@@H](NC(=O)c4sc(Cl)cc4OCCN4CCOCC4)C3)c12 [Example 148, (R)-N-(1-(4-amino-7-(2-fluoropyridin-4-yl)pyrrolo[2,1-f][1,2,4]triazin-5-yl)piperidin-3-yl)-5-chloro-3-(2-morpholinoethoxy) thiophene-2-carboxamide, TFA]	8.30
CN(C)CCOc1cc(Cl)sc1C(=O)N[C@@H]1CCCN(c2cc(-c3ccnc(F)c3)n3ncnc(N)c23)C1 [Example 149, (R)-N-(1-(4-amino-7-(2-fluoropyridin-4-yl)pyrrolo[2,1-f][1,2,4]triazin-5-yl)piperidin-3-yl)-5-chloro-3-(2-(dimethylamino)ethoxy) thiophene-2-carboxamide, TFA]	9.00
Nc1ncnn2c(-c3ccnc(F)c3)cc(N3CCC[C@@H](NC(=O)c4cc(Cl)c(Cl)s4)C3)c12 [Example 150, (R)-N-(1-(4-amino-7-(2-fluoropyridin-4-yl)pyrrolo[2,1-f][1,2,4]triazin-5-yl)piperidin-3-yl)-4,5-dichlorothiophene-2-carboxamide]	8.30
Nc1ncnn2c(-c3ccnc(F)c3)cc(N3CCC[C@@H](NC(=O)Cc4ccc(Cl)s4)C3)c12 [Example 151, (R)-N-(1-(4-amino-7-(2-fluoropyridin-4-yl)pyrrolo[2,1-f][1,2,4]triazin-5-yl)piperidin-3-yl)-2-(5-chlorothiophen-2-yl)acetamide]	6.55
Nc1ncnn2c(-c3ccnc(F)c3)cc(N3CCC[C@@H](NC(=O)c4ccc(C(F)F)s4)C3)c12 [Example 152, (R)-N-(1-(4-amino-7-(2-fluoropyridin-4-yl)pyrrolo[2,1-f][1,2,4]triazin-5-yl)piperidin-3-yl)-5-(difluoromethyl)thiophene-2-carboxamide, TFA]	8.30
Nc1ncnn2c(-c3ccnc(F)c3)cc(N3CCC[C@@H](NC(=O)c4cccs4)C3)c12 [Example 153, (R)-N-(1-(4-amino-7-(2-fluoropyridin-4-yl)pyrrolo[2,1-f][1,2,4]triazin-5-yl)piperidin-3-yl)thiophene-2-carboxamide]	9.00
Nc1ncnn2c(-c3ccnc(F)c3)cc(N3CCC[C@@H](NC(=O)c4ccc(C(F)(F)F)s4)C3)c12 [Example 154, (R)-N-(1-(4-amino-7-(2-fluoropyridin-4-yl)pyrrolo[2,1-f][1,2,4]triazin-5-yl)piperidin-3-yl)-5-(trifluoromethyl)thiophene-2-carboxamide, TFA]	8.15
Nc1ncnn2c(-c3ccnc(F)c3)cc(N3CCC[C@@H](NC(=O)c4ccsc4)C3)c12 [Example 155, (R)-N-(1-(4-amino-7-(2-fluoropyridin-4-yl)pyrrolo[2,1-f][1,2,4]triazin-5-yl)piperidin-3-yl)thiophone-3-carboxamide]	8.70
COc1cscc1C(=O)N[C@@H]1CCCN(c2cc(-c3ccnc(F)c3)n3ncnc(N)c23)C1 [Example 156, (R)-N-(1-(4-amino-7-(2-fluoropyridin-4-yl)pyrrolo[2,1-f][1,2,4]triazin-5-yl)piperidin-3-yl)-4-methoxythiophene-3-carboxamide]	8.52
Nc1ncnn2c(-c3ccnc(F)c3)cc(N3CCC[C@@H](NC(=O)c4cc(Cl)sc4Cl)C3)c12 [Example 157, (R)-N-(1-(4-amino-7-(2-fluoropyridin-4-yl)pyrrolo[2,1-f][1,2,4]triazin-5-yl)piperidin-3-yl)-2,5-dichlorothiophene-3-carboxamide]	7.82
COc1c(C(=O)N[C@@H]2CCCN(c3cc(-c4ccnc(F)c4)n4ncnc(N)c34)C2)csc1Cl [Example 158, (R)-N-(1-(4-amino-7-(2-fluoropyridin-4-yl)pyrrolo[2,1-f][1,2,4]triazin-5-yl)piperidin-3-yl)-5-chloro-4-methoxythiophene-3-carboxamide]	8.22
Nc1ncnn2c(-c3ccnc(F)c3)cc(N3CCC[C@@H](NC(=O)c4csc5ccccc45)C3)c12 [Example 159, (R)-N-(1-(4-amino-7-(2-fluoropyridin-4-yl)pyrrolo[2,1-f][1,2,4]triazin-5-yl)piperidin-3-yl)benzo[b]thiophene-3-carboxamide, TFA]	7.77
Nc1ncnn2c(-c3ccnc(F)c3)cc(N3CCC[C@@H](NC(=O)c4csc5c4CCCC5)C3)c12 [Example 160, (R)-N-(1-(4-amino-7-(2-fluoropyridin-4-yl)pyrrolo[2,1-f][1,2,4]triazin-5-yl)piperidin-3-yl)-4,5,6,7-tetrahydrobenzo[b] thiophene-3-carboxamide, TFA]	7.70
